Measurements: US9856480B2, “Dnazyme for silencing the expression of EGFR” (DCB-USA LLC, priority 2013, dated 2018)
Strand notation (5' to 3'): a small letter for the sugar, then the base; units joined by * are phosphorothioate-linked, units joined directly phosphodiester-linked; [ ] holds rarer units or linkages, { } end groups; capitals alone tell only the bases. d = 2'-deoxy (DNA)

Experiments:
Type in all cases: cell-based, human
CL97 cells = test: Apoptosis assay (annexin V and PI, flow cytometry); settings: 100 nM, 48 h
Protocol: (§1) H1975 or CL97 was seeded onto 10-cm dish and cultured overnight. Then, cells were separately treated with 100 nM DzControl or DzT790M-1 with lipofectamine 2000 (Invitrogen). After 48 h, cells were collected, double stained by annexin V and PI, and analyzed by flow cytometry following the protocol of Dead cell apoptosis kit from manufacturer (Invitrogen).

H1975 cells = test: Apoptosis assay (annexin V and PI, flow cytometry); settings: 100 nM, 48 h
Protocol: as §1

wild-type EGFR = test: Western immunoblotting of EGFR expression and downstream signaling in wild-type EGFR cell lines; settings: A549 and CL1-5 cells, 100 nM
Protocol: A549, CL1-5, H1975, or CL97 was seeded onto 6-well at 3×10^5 cells/well and cultured overnight. Then, cells were separately treated with 100 nM DzControl or DzT790M-1 with lipofectamine 2000 (Invitrogen). The transfected A549 and CL1-5 cells were serum-starved for 24 h and treated with 100 ng/ml of EGF at 37° C. for 15 min. 72 h after transfection, cell were collected for analysis. Cells were washed twice by ice-cold PBS and then total protein was extracted by RIPA buffer with protease inhibitor (Roche). 50 μg of total protein from the supernatants were boiled for 5 min at 95° C. The samples were resolved on 10% SDS-PAGE gel and transferred onto nitrocellulose membranes. EGFR expression and downstream signaling were detected by using primary antibodies specific to human pEGFR(Y1068) (Cell signaling), tEGFR (Santa Cruz), pSTAT3 (Y705) (Cell signaling), tSTAT3 (Cell signaling), pAKT (5473)(Cell signaling), tAKT (Santa Cruz), pERK (T202/Y204) (Cell signaling), tERK (Santa Cruz), and cleaved PARP (Cell signaling) at 1:1000 dilution and β-actin (Santa Cruz) at 1:10000 dilution, respectively. Secondary antibodies against rabbit IgG or mouse IgG was used at 1:5000 dilution. Protein bands on membrane were visualized by exposure to the chemiluminescence substrate.
EGFR belongs to receptor tyrosine kinases. The binding of its extracellular ligands triggers receptor dimerization, tyrosine residues phosphorylation, and downstream signaling activation including signal transducer and activator of transcription 3 (STAT3), Akt, extracellular signal regulated kinases (ERK), and others. To examine the effects of DzT790M on protein expression level of EGFR and its downstream signaling, western immunoblotting was performed on DzT790M transfected cells. A549, CL1-5, H1975, or CL97 was seeded onto 6-well at 3×10^5 cells/well and cultured overnight. Then, cells were separately treated with 100 nM DzControl or DzT790M-1 with lipofectamine 2000 (Invitrogen). The transfected A549 and CL1-5 cells were serum-starved for 24 h and treated with 100 ng/ml of EGF at 37° C. for 15 min. 72 h after transfection, cell were collected for analysis. Cells were washed twice by ice-cold PBS and then total protein was extracted by RIPA buffer with protease inhibitor (Roche). […] Also, activation of downstream STAT3, AKT, and ERK signaling after EGF treatment were not inhibited by DzT790M-1 or DzT790M-2 transfection.
CL1-5 (EGFR wild-type) or H1975 (EGFR T790M) were seeded onto 6-well at 3×10^5 cells/well and cultured overnight. […] The transfected CL1-5 cells were serum-starved for 24 h and treated with 100 ng/ml of EGF at 37° C. for 15 min. 72 h after transfection, cells were collected for western blotting analysis following the above mentioned procedure. […]

wild-type EGFR mRNA = test: Quantitative real-time PCR of EGFR mRNA knockdown; settings: A549 cells; 50, 100, or 150 nM; 48 h
Protocol: A549, CL1-5, H1975, or CL97 was seeded onto 6-well at 3×10^5 cells/well and cultured overnight. Then, cells were separately treated with 100 nM DzControl or DzT790M-1 with lipofectamine 2000 (Invitrogen). After 48 h, total mRNA were extracted from DNAzyme-treated cells by Mestrisol following manufacturer's protocol. cDNA were synthesized by using RT III kit with random hexamers as primers (Invitrogen). The PCR primers were synthesized by Genomics BioSci & Tech (Taipei, Taiwan). The sequences of PCR primers are listed as follows: […]
The parameters for PCR were: 95° C. for 10 min, then 25 cycles of PCR at 95° C. for 30 s, 60° C. for 30 s, and 72° C. for 60 s. 3% agarose gels were used for electrophoresis of PCR products. The intensity of bands were quantified by Image J. Quantitative RT-PCR was performed on 40 ng total mRNA with the LightCycler 480 system (Roche). The PCR mix contained 5 μl of 2× Probe Master mix, 100 nM of UPL probe (Roche Diagnostics, Penzberg, Germany), 200 nM of forward primer and reverse primer, 0.1 ul RNAseout (Invitrogen), and 0.025 ul RTIII enzyme (Invitrogen) in a total volume of 10 μl. PCR parameters were as follows: 50° C. for 40 min, then 45 cycles of PCR at 95° C. for 10 s, 60° C. for 10 s, and 72° C. for 2 s. Data were analyzed by LC480 software (Roche Diagnostics, Penzberg, Germany). The relative amount of EGFR mRNA was normalized to ACTB mRNA. The sequences of PCR primers are as follows: […]
To examine the allele selectivity of DzT790M-1, EGFR mRNA knockdown efficiency was detected in two cell lines harboring wild-type EGFR (A549, CL1-5) and two cell lines containing EGFR T790M mutation (H1975, CL97). A549, CL1-5, H1975, or CL97 was seeded onto 6-well at 3×10^5 cells/well and cultured overnight. […]
Then, A549 and PC9 cells were separately treated with 50, 100, or 150 nM control DNAzyme or DzEGFR—ΔE746-A750 with Lipofectamine 2000 for 48 h. […] Quantitative RT-PCR was performed on 40 ng total mRNA with the LightCycler 480 system (Roche). […] Data were analyzed by LC480 software (Roche Diagnostics). […]

[1] = test system: EGFR E746-A750 deletion mRNA; test: Quantitative RT-PCR of EGFR mRNA in PC9 cells; settings: 50, 100, or 150 nM, 48 h, DzControl-treated group as 100% expression
Protocol: Then, A549 and PC9 cells were separately treated with 50, 100, or 150 nM control DNAzyme or DzEGFR—ΔE746-A750 with Lipofectamine 2000 for 48 h. A549 and H1975 cells were separately treated with 100 nM control DNAzyme or different DzL858Rs with Lipofectamine 2000 for 48 h. RNA purification was done by conventional TRIzol® (Invitrogen Corp., Grand Island, N.Y.) method following manufacturer's protocol. Quantitative RT-PCR was performed on 40 ng total mRNA with the LightCycler 480 system (Roche). The PCR mix contained 5 μl of 2× ProbeMaster mix, 100 nM of UPL probe (Roche Diagnostics, Penzberg, Germany) and 200 nM of primer (each) in a total volume of 10 μl. The PCR conditions were 95° C. for 10 min, followed by 60 cycles at 95° C. for 10 s, 60° C. for 10 s, and 72° C. for 2 s. Data were analyzed by LC480 software (Roche Diagnostics). The relative amount of EGFR mRNA was normalized to ACTB mRNA. The sequences of PCR primers are as follows: […]

[2] = test system: A549 cells (wild type EGFR); test: Cell proliferation (MTT); settings: 150 nM of DNAzyme, 48 h
Protocol: (§2) Then, cells were separately treated with 50, 100, or 150 nM control DNAzyme or DzEGFR—ΔE746-A750 with Lipofectamine 2000 for 48 h.

[3] = test system: PC9 cells (E746-A750 deletion EGFR); test: Cell proliferation (MTT); settings: 48 h, DzControl-treated group as 0% death
Protocol: as §2

In the case of “DzControl: control DNAzyme not complementary to any mRNA in human cells: CATCGGAGGCTAGCTACAACGAGACAGCTG (DNA dC*dAdTdCdGdGdAdGdGdCdTdAdGdCdTdAdCdAdAdCdGdAdGdAdCdAdGdCdT*dG; further chemistry not fully specified) [reference compound]”, the “percentage of apoptotic cells in whole cell population” value (CL97 cells) is reported as 5.2%, the “percentage of dead cells in whole cell population” value (CL97 cells) is reported as 17% and the apoptotic cells (H1975 cells) is reported as 3.6%. For the same substance, the “dead cells (annexin V and PI double positive)” value (H1975 cells) was 12.4%.
In the case of “DzT790M-2: 10-23 DNAzyme against EGFR T790M mRNA, arms 8/8: GAGCTGCAGGCTAGCTACAACGAGATGAGCT (DNA, backbone and methylation of C not given here)”, the “activation of downstream STAT3, AKT, and ERK signaling after EGF treatment” value (wild-type EGFR; 100 ng/ml EGF 15 min) is reported as “not inhibited” and the “protein level of EGFR compared to DzControl group” value (wild-type EGFR; 72 h after transfection) is reported as “did not decreased”.
“DzEGFR—ΔE746-A750: DNAzyme against EGFR E746-A750 deletion: GGAGATGTGTCAGCTGACTCGAATGATAGCGAC (DNA, backbone and methylation of C not given here)” was tested, and the “binding and action on wild type EGFR” value (wild-type EGFR mRNA) was “did not bind and act”, the “mutant EGFR expression” value [1] was “suppressed” and the “viability of A549 cells affected” value [2] was 20%. For the same substance, the “death of PC9 cells” value [3] was 60%.
